How the values were obtained:
Format in all cases: in vivo
Hordeum vulgare [1] = assay: Preemergence herbicidal activity (Example 67); set-up: herbicide rating, HORVW: scale not given here; conditions: pre, 800 g/ha; for herbicide rating, HORVW: rated about 1-3 weeks after treatment
Procedure: (§1) Herbicidal evaluation of compounds of the invention is conducted on the following plant species:
(§2) The soil is a prepared horticultural substrate containing 30% peat, 20% volcanic clay, 30% bark residues and 20% polyamide/styromull in a 1:3 mixture with loamy sand. Test solutions are prepared by dissolving the test compound in acetone containing 0.5% of an alkylphenol/ethylene oxide condensate under the trademark, TRITON® X-155, and diluting with water as needed. The test solutions are applied as a spray to the 3-6 week old seedling plants at dose rates corresponding to 800g/ha in a volume equivalent to 400 L/ha. A pneumatic spraying device employing a Teejet nozzle SS 8002E operating at 3 bar is used for a predetermined time. After spraying, the treated plants are placed on greenhouse benches and cared for in a manner commensurate with conventional greenhouse practice. After 10-21 days, the treated plants are evaluated and rated according to the rating system provided below.
(§3) The soil surface is then sprayed with test solutions as described in the postemergence evaluation hereinabove. After spraying, the treated cups are placed on greenhouse benches and cared for in the manner commensurate with conventional greenhouse practice. About 1-3 weeks after treatment the cups are evaluated and rated according to the rating system provided hereinabove.

Abutilon theophrasti [2] = assay: Postemergence herbicidal activity (Example 67); conditions: pos, 800 g/ha; for herbicide rating, ABUTH: rated after 10-21 days
Procedure: as §1, §2

Hordeum vulgare [3] = assay: Postemergence herbicidal activity (Example 67); conditions: pos, 800 g/ha; for herbicide rating, HORVW: rated after 10-21 days
Procedure: as §1, §2

Triticum aestivum [4] = assay: Postemergence herbicidal activity (Example 67); conditions: pos, 800 g/ha; for herbicide rating, TRZAW: rated after 10-21 days
Procedure: as §1, §2

Setaria viridis [5] = assay: Postemergence herbicidal activity (Example 67); conditions: pos, 800 g/ha; for herbicide rating, SETVI: rated after 10-21 days
Procedure: as §1, §2

Helianthus annuus [6] = assay: Postemergence herbicidal activity (Example 67); conditions: pos, 800 g/ha; for herbicide rating, HELAN: rated after 10-21 days
Procedure: as §1, §2

Veronica persica [7] = assay: Postemergence herbicidal activity (Example 67); conditions: pos, 800 g/ha; for herbicide rating, VERPE: rated after 10-21 days
Procedure: as §1, §2

Amaranthus retroflexus [8] = assay: Postemergence herbicidal activity (Example 67); conditions: pos, 800 g/ha; for herbicide rating, AMARE: rated after 10-21 days
Procedure: as §1, §2

Ipomoea hederacea [9] = assay: Postemergence herbicidal activity (Example 67); conditions: pos, 800 g/ha; for herbicide rating, IPOHE: rated after 10-21 days
Procedure: as §1, §2

Chenopodium album [10] = assay: Postemergence herbicidal activity (Example 67); conditions: pos, 800 g/ha; for herbicide rating, CHEAL: rated after 10-21 days
Procedure: as §1, §2

Alopecurus myosuroides [11] = assay: Postemergence herbicidal activity (Example 67); conditions: pos, 800 g/ha; for herbicide rating, ALOMY: rated after 10-21 days
Procedure: as §1, §2

Zea mays [12] = assay: Postemergence herbicidal activity (Example 67); conditions: pos, 800 g/ha; for herbicide rating, ZEAMX: rated after 10-21 days
Procedure: as §1, §2

Galium aparine [13] = assay: Postemergence herbicidal activity (Example 67); conditions: pos, 800 g/ha; for herbicide rating, GALAP: rated after 10-21 days
Procedure: as §1, §2

Abutilon theophrasti [14] = assay: Preemergence herbicidal activity (Example 67); conditions: pre, 800 g/ha; for herbicide rating, ABUTH: rated about 1-3 weeks after treatment
Procedure: as §1, §2, §3

Helianthus annuus [15] = assay: Preemergence herbicidal activity (Example 67); conditions: pre, 800 g/ha; for herbicide rating, HELAN: rated about 1-3 weeks after treatment
Procedure: as §1, §2, §3

Veronica persica [16] = assay: Preemergence herbicidal activity (Example 67); conditions: pre, 800 g/ha; for herbicide rating, VERPE: rated about 1-3 weeks after treatment
Procedure: as §1, §2, §3

Amaranthus retroflexus [17] = assay: Preemergence herbicidal activity (Example 67); conditions: pre, 800 g/ha; for herbicide rating, AMARE: rated about 1-3 weeks after treatment
Procedure: as §1, §2, §3

Ipomoea hederacea [18] = assay: Preemergence herbicidal activity (Example 67); conditions: pre, 800 g/ha; for herbicide rating, IPOHE: rated about 1-3 weeks after treatment
Procedure: as §1, §2, §3

Chenopodium album [19] = assay: Preemergence herbicidal activity (Example 67); conditions: pre, 800 g/ha; for herbicide rating, CHEAL: rated about 1-3 weeks after treatment
Procedure: as §1, §2, §3

Zea mays [20] = assay: Preemergence herbicidal activity (Example 67); conditions: pre, 800 g/ha; for herbicide rating, ZEAMX: rated about 1-3 weeks after treatment
Procedure: as §1, §2, §3

Galium aparine [21] = assay: Preemergence herbicidal activity (Example 67); conditions: pre, 800 g/ha; for herbicide rating, GALAP: rated about 1-3 weeks after treatment
Procedure: as §1, §2, §3

Setaria viridis [22] = assay: Preemergence herbicidal activity (Example 67); set-up: herbicide rating, SETVI: scale not given here; conditions: pre, 800 g/ha; for herbicide rating, SETVI: rated about 1-3 weeks after treatment
Procedure: as §1, §2, §3

Alopecurus myosuroides [23] = assay: Preemergence herbicidal activity (Example 67); set-up: herbicide rating, ALOMY: scale not given here; conditions: pre, 800 g/ha; for herbicide rating, ALOMY: rated about 1-3 weeks after treatment
Procedure: as §1, §2, §3

Triticum aestivum [24] = assay: Preemergence herbicidal activity (Example 67); set-up: herbicide rating, TRZAW: scale not given here; conditions: pre, 800 g/ha; for herbicide rating, TRZAW: rated about 1-3 weeks after treatment
Procedure: as §1, §2, §3

## CC(NC(=O)c1nc(-c2cccc(Cl)n2)ns1)c1cccs1 (racemic) [Example 47]
Hordeum vulgare [1]
  HOR VW rating: 0
Abutilon theophrasti [2]
  ABU TH rating: 4 (30-44%)
Hordeum vulgare [3]
  HOR VW rating: 3 (16-29%)
Triticum aestivum [4]
  TRZ AW rating: 1 (1-5%)
Setaria viridis [5]
  SET VI rating: 6 (65-79%)
Helianthus annuus [6]
  HEL AN rating: 5 (45-64%)
Veronica persica [7]
  VER PE rating: 3 (16-29%)
Amaranthus retroflexus [8]
  AMA RE rating: 1 (1-5%)
Ipomoea hederacea [9]
  IPO HE rating: 4 (30-44%)
Chenopodium album [10]
  CHE AL rating: 4 (30-44%)
Alopecurus myosuroides [11]
  ALO MY rating: 4 (30-44%)
Zea mays [12]
  ZEA MX rating: 4 (30-44%)
Galium aparine [13]
  GAL AP rating: 4 (30-44%)
Abutilon theophrasti [14]
  ABU TH rating: 2 (6-15%)
Helianthus annuus [15]
  HEL AN rating: 0
Veronica persica [16]
  VER PE rating: 0
Amaranthus retroflexus [17]
  AMA RE rating: 0
Ipomoea hederacea [18]
  IPO HE rating: 1 (1-5%)
Chenopodium album [19]
  CHE AL rating: 0
Zea mays [20]
  ZEA MX rating: 0
Galium aparine [21]
  GAL AP rating: 1 (1-5%)
Setaria viridis [22]
  SET VI rating: 3 (16-29%)
Alopecurus myosuroides [23]
  ALO MY rating: 0
Triticum aestivum [24]
  TRZ AW rating: 0

## CCCCc1nsc(C(=O)NC(C)c2cccs2)n1 (racemic) [Example 25]
Hordeum vulgare [1]
  herbicide rating, HORVW: 0
Abutilon theophrasti [2]
  herbicide rating, ABUTH: 6 (65-79%)
Hordeum vulgare [3]
  herbicide rating, HORVW: 3 (16-29%)
Triticum aestivum [4]
  herbicide rating, TRZAW: 2 (6-15%)
Setaria viridis [5]
  herbicide rating, SETVI: 8 (91-99%)
Helianthus annuus [6]
  herbicide rating, HELAN: 7 (80-90%)
Veronica persica [7]
  herbicide rating, VERPE: 3 (16-29%)
Amaranthus retroflexus [8]
  herbicide rating, AMARE: 3 (16-29%)
Ipomoea hederacea [9]
  herbicide rating, IPOHE: 5 (45-64%)
Chenopodium album [10]
  herbicide rating, CHEAL: 6 (65-79%)
Alopecurus myosuroides [11]
  herbicide rating, ALOMY: 4 (30-44%)
Zea mays [12]
  herbicide rating, ZEAMX: 0
Galium aparine [13]
  herbicide rating, GALAP: 6 (65-79%)
Abutilon theophrasti [14]
  herbicide rating, ABUTH: 0
Helianthus annuus [15]
  herbicide rating, HELAN: 0
Veronica persica [16]
  herbicide rating, VERPE: 4 (30-44%)
Amaranthus retroflexus [17]
  herbicide rating, AMARE: 0
Ipomoea hederacea [18]
  herbicide rating, IPOHE: 0
Chenopodium album [19]
  herbicide rating, CHEAL: 6 (65-79%)
Zea mays [20]
  herbicide rating, ZEAMX: 0
Galium aparine [21]
  herbicide rating, GALAP: 0
Setaria viridis [22]
  herbicide rating, SETVI: 0
Alopecurus myosuroides [23]
  herbicide rating, ALOMY: 0
Triticum aestivum [24]
  herbicide rating, TRZAW: 0

## CCCCc1nsc(C(=O)N[C@@H](C)c2ccccc2)n1 [Example 32]
Hordeum vulgare [1]
  herbicide rating, HORVW: 0
Abutilon theophrasti [2]
  herbicide rating, ABUTH: 5 (45-64%)
Hordeum vulgare [3]
  herbicide rating, HORVW: 2 (6-15%)
Triticum aestivum [4]
  herbicide rating, TRZAW: 3 (16-29%)
Setaria viridis [5]
  herbicide rating, SETVI: 7 (80-90%)
Helianthus annuus [6]
  herbicide rating, HELAN: 5 (45-64%)
Veronica persica [7]
  herbicide rating, VERPE: 0
Amaranthus retroflexus [8]
  herbicide rating, AMARE: 3 (16-29%)
Ipomoea hederacea [9]
  herbicide rating, IPOHE: 5 (45-64%)
Chenopodium album [10]
  herbicide rating, CHEAL: 5 (45-64%)
Alopecurus myosuroides [11]
  herbicide rating, ALOMY: 2 (6-15%)
Zea mays [12]
  herbicide rating, ZEAMX: 0
Galium aparine [13]
  herbicide rating, GALAP: 6 (65-79%)
Abutilon theophrasti [14]
  herbicide rating, ABUTH: 0
Helianthus annuus [15]
  herbicide rating, HELAN: 0
Veronica persica [16]
  herbicide rating, VERPE: 5 (45-64%)
Amaranthus retroflexus [17]
  herbicide rating, AMARE: 0
Ipomoea hederacea [18]
  herbicide rating, IPOHE: 0
Chenopodium album [19]
  herbicide rating, CHEAL: 5 (45-64%)
Zea mays [20]
  herbicide rating, ZEAMX: 0
Galium aparine [21]
  herbicide rating, GALAP: 0
Setaria viridis [22]
  herbicide rating, SETVI: 0
Alopecurus myosuroides [23]
  herbicide rating, ALOMY: 0
Triticum aestivum [24]
  herbicide rating, TRZAW: 0

## COCCc1nsc(C(=O)N[C@@H](C)c2ccccc2)n1 [Example 34]
Hordeum vulgare [1]
  herbicide rating, HORVW: 0
Abutilon theophrasti [2]
  herbicide rating, ABUTH: 1 (1-5%)
Hordeum vulgare [3]
  herbicide rating, HORVW: 0
Triticum aestivum [4]
  herbicide rating, TRZAW: 3 (16-29%)
Setaria viridis [5]
  herbicide rating, SETVI: 3 (16-29%)
Helianthus annuus [6]
  herbicide rating, HELAN: 2 (6-15%)
Veronica persica [7]
  herbicide rating, VERPE: 2 (6-15%)
Amaranthus retroflexus [8]
  herbicide rating, AMARE: 0
Ipomoea hederacea [9]
  herbicide rating, IPOHE: 4 (30-44%)
Chenopodium album [10]
  herbicide rating, CHEAL: 2 (6-15%)
Alopecurus myosuroides [11]
  herbicide rating, ALOMY: 3 (16-29%)
Zea mays [12]
  herbicide rating, ZEAMX: 0
Galium aparine [13]
  herbicide rating, GALAP: 1 (1-5%)
Abutilon theophrasti [14]
  herbicide rating, ABUTH: 0
Helianthus annuus [15]
  herbicide rating, HELAN: 0
Veronica persica [16]
  herbicide rating, VERPE: 3 (16-29%)
Amaranthus retroflexus [17]
  herbicide rating, AMARE: 0
Ipomoea hederacea [18]
  herbicide rating, IPOHE: 0
Chenopodium album [19]
  herbicide rating, CHEAL: 0
Zea mays [20]
  herbicide rating, ZEAMX: 0
Galium aparine [21]
  herbicide rating, GALAP: 0
Setaria viridis [22]
  herbicide rating, SETVI: 0
Alopecurus myosuroides [23]
  herbicide rating, ALOMY: 0
Triticum aestivum [24]
  herbicide rating, TRZAW: 0

Source: patent EP0726261A1, “Herbidical 1,2,4 thiadiazoles” (American Cyanamid Company, priority 1995, dated 1996)
